The values below come from PMC3909768 (Journal of Cancer, 2014).

Series [1] is described as follows: Brain and prostate distribution after single IV in rats. Conditions: rat, in vivo.
The test system of a further series is CYP3A. The series is described as follows: CYP3A induction in human hepatocytes. Conditions: for CYP3A induction, in words: 1uM; for CYP 3A induction, Positive control, %: human hepatocytes, 48 hours. Type of series: in vitro ADME.
A further series addresses GABA receptors. The following applies: read-out: IC50, GABA receptors; ref [6]; cited from earlier work.
In another series the test system is LnCaP-Z2 tumors. Kind of series: LnCaP-Z2 xenograft antitumor efficacy. It counts as in vivo, male CB17-SCID mice. The following applies: 50 mg/kg once daily.
Series [2] can be described thus: Drug concentration in plasma and xenograft tumor after 21-day dosing. Conditions: male, CB17-SCID, mouse, in vivo.
Series [3] is described as follows: Plasma protein binding by equilibrium dialysis, rat. It counts as in vitro ADME. Conditions: Rats plasma, 1 uM, equilibrium dialysis 4h 37C. Background: Equilibrium dialysis compares concentrations on both sides of a semipermeable membrane.
The nature of series [4]: Plasma protein binding by equilibrium dialysis, dog. It counts as in vitro ADME. The following applies: Dogs plasma, 1 uM, equilibrium dialysis 4h 37C.
A short description of series [5]: Plasma protein binding by equilibrium dialysis, human. The following applies: 1 uM, equilibrium dialysis 4h 37C. Type of series: in vitro ADME.
[6] abbreviates: 1 mg/kg, Prostate, single IV 1 mg/kg.
Where [7] appears, read: 1 mg/kg, brain, single IV 1 mg/kg.
Setting [8] is: 1 mg/kg, plasma, single IV 1 mg/kg.
The mark [9] stands for this setting: 2 mg/kg, Prostate, single IV 2 mg/kg.
Setting [10] is: 2 mg/kg, brain, single IV 2 mg/kg.
Setting [11] is: 2 mg/kg, plasma, single IV 2 mg/kg.

“And” between values parts separate entries of the source, which are not always exact repeats. Identical values can stand only once.

In general, IC50 refers to the concentration that gives 50% inhibition. `CNC(=O)c1ccc(N2C(=S)N(c3cnc(C#N)c(C(F)(F)F)c3)C(=O)C23CCC3)cc1F` [ARN-509]: the Kp at 30 min in series [1] (1 mg/kg) is 1.94 ± 0.24. The Kp at 120 min in series [1] (1 mg/kg) was 3.15 ± 0.94. For the same compound, the concentration at 30 min in series [1] (setting [6]) amounted to 487 ± 73 ng/g; in series [1] (setting [7]), 241 ± 21 ng/g; in series [1] (setting [8]), 251 ± 29 ng/mL. For the same compound, the values for the concentration at 120 min in series [1] (setting [6]), in series [1] (setting [7]) and in series [1] (setting [8]) were 482 ± 120 ng/g, 176 ± 31 ng/g and 153 ± 10 ng/mL, respectively. Also, the “CYP3A induction, in words” value in the series on CYP3A was “still active”. The “CYP 3A induction, Positive control, %” value in the series with CYP3A (1 uM) came to 16.3±2.5%; with CYP3A (10 uM), 102.7±13.0%. Further, the IC50 at GABA receptors is 3000 nM.
For `CC(O)(CS(=O)(=O)c1ccc(F)cc1)C(=O)Nc1ccc(C#N)c(C(F)(F)F)c1` (stereo not drawn) [Bicalutamide, reference compound], in the series with LnCaP-Z2 tumors, the “antitumor efficacy, in words” value was “less effective”. Besides, in series [2] (50 mg/kg), the Kp at 24 h is 2.5 ± 1.36; the concentration at 24 h is 3250 ng/mL and 8740 ng/g.
Regarding `CNC(=O)c1ccc(N2C(=S)N(c3ccc(C#N)c(C(F)(F)F)c3)C(=O)C2(C)C)cc1F` [MDV3100], the Bound fraction in series [3] was 96.4%; in series [4], 97.3%; in series [5] it was 98.4%. Further, the Kp at 30 min in series [1] (2 mg/kg) is 0.39 ± 0.03. The compound also came in with a Kp at 120 min in series [1] (2 mg/kg) of 0.33 ± 0.16. Further, the concentration at 30 min in series [1] (setting [9]) was 102 ± 4 ng/g; in series [1] (setting [10]), 164 ± 19 ng/g; in series [1] (setting [11]) it was 263 ± 19 ng/mL. Also, the concentration at 120 min in series [1] (setting [9]) was determined as 124 ± 27 ng/g; in series [1] (setting [10]), 152 ± 31 ng/g; in series [1] (setting [11]), 377 ± 153 ng/mL. Besides, the “CYP3A induction, in words” value in the series with CYP3A was “still active”. In addition, the “CYP 3A induction, Positive control, %” value in the series on CYP3A (1 uM) amounted to 10.0±2.0%; in the series on CYP3A (10 uM) it was 73.3±6.8%. For the same compound, the Kp at 24 h in series [2] (10 mg/kg) was 0.53 ± 0.15.
